Data reported in patent US20090215693A1, “METHODS FOR INCREASING HYALURONIC ACID LEVELS AND IMPROVING MOISTURE RETENTION IN TISSUE” (priority 2008, published 2009).

Test system: Fibroblasts
Assay: Hyaluronic acid production by cultured fibroblasts (ELISA of culture medium)
Format: cell-based
Conditions: fibroblasts, 48 hours incubation, culture medium
Experimental: Fibroblasts were seeded into individual wells of a 12-well plate in 1.0 ml of Fibroblast Growth Media (FGM) and incubated overnight at 37±2° C. and 5±1% CO2. On the following day the media was removed via aspiration to eliminate non-adherent cells and replaced with 1.0 ml of fresh FGM. Cells were grown until confluent, with a media change every 48 to 72 hours. Upon reaching confluency the cells were treated for 24 hours with DMEM supplemented with 1.5% FBS to eliminate growth factors from the normal culture media. After this 24-hour wash-out period the cells were treated with the indicated test materials (i.e., milk-derived products containing lactoferrin) at the specified concentrations dissolved in FGM with 1.5% FBS. Dibutyrl cAMP (DBcAMP) at 0.1 mM was used as a positive control. Untreated cells (negative control) received FGM with 1.5% FBS. The cells were incubated for 48 hours and at the end of the incubation period cell culture medium was collected and either stored frozen (−75° C.) or assayed immediately. All testing was done in triplicate.
A series of hyaluronic acid standards from 50 ng/ml to 3,200 ng/ml was prepared. […] After incubation, 50 μl of stop solution was added to each well and the absorbance was measured at 405 nm using a plate reader. Hyaluronic acid production was expressed as ng/ml and results are shown in Table 1 and the graph of FIG. 1.

Row | SMILES | HA Measured (amount applied 0.1 mM (positive control)) [ng/mL] | HA Measured (amount applied 4 mM) [ng/mL]
1 | CCCC(=O)Nc1ncnc2c1ncn2[C@@H]1O[C@@H]2COP(=O)(O)O[C@H]2[C@H]1OC(=O)CCC [DBcAMP, dibutyryl cyclic AMP] | 416 ± 24 | 
2 | CCCC(=O)[O-].[Na+] [Sodium Butyrate] |  | 139 ± 6
